1 substance from patent US8506950B2, “Degradable microcapsules” (ETH Zurich, priority 2008, dated 2013) can be followed below.

Values joined by “and” are separate entries in the source; they are usually repeats but may differ in a detail not shown here. Equal entries are not always repeated.

Common to all, as to type: cell-based
Assay [1] concerns the target T1, rLHR (Rattus norvegicus, UniProt P16235). The experiment in a line: PCRE dependent SEAP expression over time in HEK293T expressing rLHR or bLHR. More on the design: Full-length cDNAs encoding the LHRs of rat (r) and bovine (b) origin; expressed in transfected cells; host or cells: HEK293T, transient transfection with pLEN-rLHR. The conditions noted are these: 500 ng/mL bLH, maximal SEAP expression. As to the method:
HEK293T cells were transiently co-transfected for PCRE dependent SEAP expression and constitutive bLHR- or rLHR expression or with the empty vector pcDNA3.1(+). 24 hours post-transfection the cells were induced by addition of 500 ng/mL bLH or cultivated non-induced. […] (▴) rLHR+bLH; (▪) bLHR+bLH; (×) rLHR-bLH; (♦) bLHR-bLH;
(§1) Functional expression of LHRs on the cell surface results in the stimulation of PKA and an increase of intracellular cAMP in response to bLH. It was evaluated whether the activated LHR-signaling may induce a PKA-responsive promoter. […] 24 hours post-transfection the cells were induced by bLH and the SEAP expression was determined over time. […] In comparing rLHR- and bLHR-expressing cells a 3-fold increase in maximal SEAP expression in response to bLH of the rLHR over the bLHR was detected. […]
(§2) The intracellular cAMP production of cells was quantified using the cAMP Fluorescence Polarization (FP) Biotrak Immunoassay System (GE Healthcare Bio-Sciences GmbH, Otelfingen, Switzerland, Cat No. RPN3595) according to the manufacturer's protocol. The expression of firefly luciferase was determined with the Tropix Luciferase Assay Kit (Applied Biosystems, Bedford, USA, Cat No. BC100L). […] Enhanced YFP-expression was detected by fluorescence microscopy (Leica Microsystems, Wetzlar, Germany)

Assay [2] addresses T1, rLHR. The experiment in a line: PCRE controlled luciferase expression in HEK293T transiently transfected with rLHR. More on the design: Full-length cDNAs encoding the LHRs of rat (r) and bovine (b) origin; expressed in transfected cells; host or cells: HEK293T, transient transfection with pLEN-rLHR. As to conditions: 500 ng/ml bLH, 6 h post-induction, pLEN-rLHR + pCRE-Luc. As to the method: HEK293T cells were transiently transfected for rLHR and PCRE controlled luciferase expression. 24 hours after transfection the cells were transferred to a 96-well plate, cultured for 12 h and induced by the addition of 500 ng/ml bLH. The luciferase expression was measured 6 h post-induction. […] Luciferase expression was expressed as relative light units (RLU).
as §1, §2

Assay [3] concerns the target T1, rLHR. As to the kind of experiment: bLH-dependent luciferase expression in stable rLHR clone 6 (CK04). Details: Full-length cDNAs encoding the LHRs of rat (r) and bovine (b) origin; expressed in transfected cells; host or cells: CK04: HEK293T stably cotransfected with pLEN-rLHR and pZeoSV2(+), clone 6. The conditions noted are these: clone 6, 500 ng/ml bLH, pCRE-Luc. The method, then: HEK293T cells were cotransfected with pLEN-LHR and pZeoSV2. After clonal expansion several single clones were transiently transfected with pCRE-Luc and screened for the functional expression of rLHR by their ability to respond to bLH. […] (□) no bLH; (▪) 500 ng/ml bLH. Luciferase expression was expressed as relative light units (RLU).
as §1, §2

T1 sequence (P16235 27-700): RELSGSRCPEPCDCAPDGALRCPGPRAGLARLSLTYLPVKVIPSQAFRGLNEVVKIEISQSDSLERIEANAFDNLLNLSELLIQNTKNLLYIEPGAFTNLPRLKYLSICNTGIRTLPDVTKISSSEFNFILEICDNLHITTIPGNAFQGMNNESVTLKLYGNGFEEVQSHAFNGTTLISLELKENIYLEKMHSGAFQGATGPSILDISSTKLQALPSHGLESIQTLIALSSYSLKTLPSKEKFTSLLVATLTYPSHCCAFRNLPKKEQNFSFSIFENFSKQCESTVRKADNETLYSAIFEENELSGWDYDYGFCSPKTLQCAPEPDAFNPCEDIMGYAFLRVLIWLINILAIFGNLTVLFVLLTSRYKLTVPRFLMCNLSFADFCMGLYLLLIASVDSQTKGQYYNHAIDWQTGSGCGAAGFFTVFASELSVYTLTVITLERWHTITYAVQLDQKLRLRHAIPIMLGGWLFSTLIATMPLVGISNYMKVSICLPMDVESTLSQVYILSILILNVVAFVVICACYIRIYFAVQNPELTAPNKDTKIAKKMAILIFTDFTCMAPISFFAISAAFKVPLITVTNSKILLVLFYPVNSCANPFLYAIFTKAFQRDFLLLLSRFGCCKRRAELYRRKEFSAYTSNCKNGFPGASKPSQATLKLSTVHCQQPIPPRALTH

As for bovine luteinizing hormone [bLH], the “SEAP production of rLHR-expressing cells relative to bLHR-expressing cells” value on rLHR [1] was 3 fold. Moreover, the “increase in luciferase expression” value on rLHR [2] is 10 fold and 9.9±0.1 fold. Besides, the “induction of luciferase expression in response to bLH” value at rLHR [3] turned out to be 17.0±0.2 fold.
